Results from PMC5218480 (PLoS ONE, 2017).

System: MV-4-11 cells
Test: Gene expression microarray analysis (Affymetrix PrimeView) and GSEA
Assay type: cell-based, human
Conditions: MV-4-11, 48 hours, 1 μM each

## Nc1ncn([C@@H]2O[C@H](CO)[C@@H](O)[C@H]2O)c(=O)n1 [azacitidine]
  genes up-regulated greater than 2-fold relative to vehicle control: 62 genes
